# Test results: patent US8124380B2 (priority 2003, dated 2012)
# Several values for one entry are separate records, joined by “and”; a condition that tells them apart may be missing. Equal entries are not always repeated.
# How the values were obtained:
# mIgG F22-4 = type: binding, murine
# mIgG D15-7 = type: binding, murine
# mIgG A2-1 = type: binding, murine
# mIgG E4-1 = type: binding, murine
# mIgG C1-7 = type: binding, murine
# [1] = test system: mIgG F22-4, D15-7, A2-1, E4-1, C1-7; type: binding, murine
# LPS 2a = test system: LPS 2a; parameters: species or system mice; details: in vivo
Compound,IC50 (mIgG F22-4),IC50 (mIgG D15-7),IC50 (mIgG A2-1),IC50 (mIgG E4-1),IC50 (mIgG C1-7),recognition (binding) by the mIgG [1],"Anti-LPS 2a antibody titer, individual mouse (1) (LPS 2a)","Anti-LPS 2a antibody titer, individual mouse (2) (LPS 2a)",improving Ab binding by a factor (mIgG D15-7),gain in recognition / binding improvement by a factor (mIgG A2-1),improving Ab binding by a factor (mIgG E4-1),fold increase in binding (mIgG A2-1)
COC1OC(C)C(OC2OC(CO)C(O)C(O)C2O)C(OC2OC(C)C(O)C(O)C2O)C1O (stereo not shown) [B(E)C],> 1000 µM,> 1000 µM,> 1000 µM,> 1000 µM,> 1000 µM,,,,,,,
COC1OC(C)C(OC2OC(CO)C(O)C(O)C2O)C(OC2OC(C)C(O)C(O)C2OC2OC(C)C(O)C(O)C2OC2OC(CO)C(O)C(O)C2NC(C)=O)C1O (stereo not shown) [DAB(E)C],> 1000 µM,> 1000 µM,> 1000 µM,> 1000 µM,> 1000 µM,absence of recognition,,,,,,
"TT: tetanus toxoid alone (140 μg/mice/injection), control [reference compound]",,,,,,,0,0,,,,
COC1OC(C)C(OC2OC(CO)C(O)C(O)C2O)C(OC2OC(C)C(O)C(O)C2OC2OC(C)C(O)C(O)C2OC2OC(CO)C(O)C(OC3OC(C)C(OC4OC(CO)C(O)C(O)C4O)C(OC4OC(C)C(O)C(O)C4O)C3O)C2NC(C)=O)C1O (stereo not shown) [B(E)CDA B(E)C],0.22 µM,60.8 µM,12.9 µM,12 µM,242 µM,,,,~4,~25,~4,
CO[C@@H]1O[C@@H](C)[C@H](O)[C@@H](O)[C@H]1O[C@@H]1O[C@H](CO)[C@@H](O)[C@H](O[C@@H]2O[C@@H](C)[C@H](O[C@H]3O[C@H](CO)[C@@H](O)[C@H](O)[C@H]3O)[C@@H](O[C@@H]3O[C@@H](C)[C@H](O)[C@@H](O)[C@H]3O)[C@H]2O)[C@H]1NC(C)=O [B(E)CDA],2.5 µM,240 µM,350 µM,75 µM,400 µM,,,,,,,
"COC1OC(C)C(OC2OC(CO)C(O)C(O)C2O)C(OC2OC(C)C(O)C(O)C2OC2OC(C)C(O)C(O)C2OC2OC(CO)C(O)C(OC3OC(C)C(OC4OC(CO)C(O)C(O)C4O)C(OC4OC(C)C(O)C(O)C4OC4OC(C)C(O)C(O)C4OC4OC(CO)C(O)C(O)C4NC(C)=O)C3O)C2NC(C)=O)C1O [DA B(E)CDA B(E)C, Methyl (2-acetamido-2-deoxy-β-D-glucopyranosyl)-(1→2)-(α-L-rhamnopyranosyl)-(1→2)-(α-L-rhamnopyranosyl)-(1→3)-[α-D-glucopyranosyl-(1→4)]-(α-L-rhamnopyranosyl)-(1→3)-(2-acetamido-2-deoxy-β-D-glucopyranosyl)-(1→2)-(α-L-rhamnopyranosyl)-(1→2)-(α-L-rhamnopyranosyl)-(1→3)-[α-D-glucopyranosyl-(1→4)]-α-L-rhamnopyranoside]",5 µM,11.9 µM,3 µM,4.4 µM,19 µM,,,,,,,100 fold
"CO[C@@H]1O[C@@H](C)[C@H](O)[C@@H](O)[C@H]1O[C@@H]1O[C@@H](C)[C@H](O)[C@@H](O)[C@H]1O[C@@H]1O[C@H](CO)[C@@H](O)[C@H](O[C@@H]2O[C@@H](C)[C@H](O[C@H]3O[C@H](CO)[C@@H](O)[C@H](O)[C@H]3O)[C@@H](O)[C@H]2O)[C@H]1NC(C)=O [(E)CDAB, Methyl α-D-glucopyranosyl-(1→4)-α-L-rhamnopyranosyl-(1→3)-2-acetamido-2-deoxy-β-D-glucopyranosyl-(1→2)-α-L-rhamnopyranosyl-(1→2)-α-L-rhamnopyranoside]",354 µM,> 1000 µM,> 1000 µM,> 1000 µM,> 1000 µM,,,,,,,
"CO[C@@H]1O[C@H](CO)[C@@H](O)[C@H](O[C@@H]2O[C@@H](C)[C@H](O[C@H]3O[C@H](CO)[C@@H](O)[C@H](O)[C@H]3O)[C@@H](O[C@@H]3O[C@@H](C)[C@H](O)[C@@H](O)[C@H]3O)[C@H]2O)[C@H]1NC(C)=O [B(E)CD, Methyl α-L-rhamnopyranosyl-(1→3)-[α-D-glucopyranosyl-(1→4)]-α-L-rhamnopyranosyl-(1→3)-2-acetamido-2-deoxy-β-D-glucopyranoside]",5 µM,198 µM,> 1000 µM,87 µM,> 1000 µM,,,,,,,
"CO[C@@H]1O[C@H](CO)[C@@H](O)[C@H](O[C@@H]2O[C@@H](C)[C@H](O[C@H]3O[C@H](CO)[C@@H](O)[C@H](O)[C@H]3O)[C@@H](O[C@@H]3O[C@@H](C)[C@H](O)[C@@H](O)[C@H]3O[C@@H]3O[C@@H](C)[C@H](O)[C@@H](O)[C@H]3O)[C@H]2O)[C@H]1NC(C)=O [AB(E)CD, Methyl α-L-rhamnopyranosyl-(1→2)-α-L-rhamnopyranosyl-(1→3)-[α-D-glucopyranosyl-(1→4)]-α-L-rhamnopyranosyl-(1→3)-2-acetamido-2-deoxy-β-D-glucopyranoside]",21 µM and 21.6 µM,490 µM,378 µM,287 µM and 288 µM,734 µM,,,,,,,
COC1OC(C)C(O)C(O)C1OC1OC(CO)C(O)C(OC2OC(C)C(OC3OC(CO)C(O)C(O)C3O)C(O)C2O)C1NC(C)=O (stereo not shown) [(E)CDA],181 µM,> 1000 µM,> 1000 µM,> 1000 µM,> 1000 µM,,,,,,,
